Converted amounts (≈) assume the structure as drawn.
Tests used:
[1] = tested on: Entamoeba histolytica; assay: […] activity against Entamoeba histolytica; assay type: functional
[2] = tested on: Giardia intestinalis; assay: Antigiardial activity against Giardia intestinalis; assay type: functional; settings: Giardia duodenalis

SMILES | MIC [1] [µM] | MIC [2] [µM]
CC[C@H]1CN2CCc3cc(OC)c(OC)cc3[C@@H]2C[C@@H]1C[C@H]1NCCc2cc(OC)c(OC)cc21 [EMETINE] | 2.9 (≈ 1.39 µg/mL) | 
Cc1ncc([N+](=O)[O-])n1CCO [METRONIDAZOLE] |  | 1.17 (≈ 0.2 µg/mL)
C=C1C(=O)O[C@@H]2C[C@@H](C)/C=C\C(=O)[C@@](C)(O)[C@H](OC(C)=O)[C@@H](OC(=O)CC(C)C)[C@@H]12 [NEUROLENIN B] | 7.6 (≈ 3.21 µg/mL) | 3.8 (≈ 1.61 µg/mL)

From ChEMBL document CHEMBL1144081, “Sesquiterpene lactones from neurolaena oaxacana” (1999)
